Data on 2 compounds can be found in article PMC9557946, “Intermittent MEK inhibition for the treatment of metastatic uveal melanoma” (Frontiers in Oncology, 2022).

Series [1] has as its system SKMEL28 melanoma cell lines. Details: method as in PMID 31874374. The note with it: intermittently administered; ref [19]; cited from earlier work.
A short description of series [2]: Pharmacokinetic analysis in serum (LC-MS/MS, non-compartmental).
Procedure: Non-compartmental analyses were performed on the data for day 1, 2, 15 and 17 using Winnonlin software (Phoenix Winnonlin 8.3.1.5014, Certara L.P., Princeton, NJ). […] Data were summarized per dose level and per occasion. Dose-exposure relationships were explored by plotting dose versus the various parameters. Accumulation was investigated using the AUC assessed at various days.

Regarding `O=C(c1ccc(F)c(F)c1Nc1ccc(I)cc1F)N1CC(O)([C@@H]2CCCCN2)C1` [cobimetinib], the “effect of treatment interruptions on tumor growth” value in series [1] is “Treatment interruptions resulted in tumor regrowth that could not be compensated when drug administration was resumed”.

For `O=C(NOCCO)c1cc2nc[nH]c2c(F)c1Nc1ccc(Br)cc1Cl` [N-desmethyl-selumetinib], the accumulation entry in series [2] (during three days of dosing and repeated three-day courses) is “little to no accumulation”. Moreover, the average terminal half-life in series [2] (from 8h serum concentration curves, likely an underestimation) is listed as 4.3 h. Further, in series [2] (overall), the “time to maximum serum concentration after oral intake” value was “approximately 1.7 hours”.
